# From patent US8697739B2, “Bicyclic acetyl-CoA carboxylase inhibitors and uses thereof” (Novartis AG, priority 2010, dated 2014)
# pIC50: −log10 of the molar value.
# Target: T1, human acetyl-CoA carboxylase 2 (ACC2) (Homo sapiens, UniProt O00763)
# T1 construct: The cDNA encoding amino acids 144 to 2458 of human acetyl-CoA carboxylase 2; made in house; host or cells: Sf9 insect cells (baculovirus, pFastBac1)
# Experiment: Acetyl-CoA carboxylase enzyme assay (malonyl-CoA formation by LC/MS/MS)
# Type: biochemical
# Details: recombinant human ACC2 (aa 144-2458); read-out: IC50 ACC2
# Outline: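 Malonyl-CoA formation was read by LC/MS/MS MRM against a [13C3]-malonyl-CoA internal standard, after acetic acid quench. The enzyme was baculovirus/Sf9-expressed human ACC2 residues 144–2458, given 15 minutes room-temperature compound preincubation in HEPES pH 7.5 buffer with MgCl2, citrate and DTT. Substrate solution held 50 μM acetyl-CoA, 120 μM ATP and 2 mM KHCO3.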
# T1 sequence (O00763 144-2458): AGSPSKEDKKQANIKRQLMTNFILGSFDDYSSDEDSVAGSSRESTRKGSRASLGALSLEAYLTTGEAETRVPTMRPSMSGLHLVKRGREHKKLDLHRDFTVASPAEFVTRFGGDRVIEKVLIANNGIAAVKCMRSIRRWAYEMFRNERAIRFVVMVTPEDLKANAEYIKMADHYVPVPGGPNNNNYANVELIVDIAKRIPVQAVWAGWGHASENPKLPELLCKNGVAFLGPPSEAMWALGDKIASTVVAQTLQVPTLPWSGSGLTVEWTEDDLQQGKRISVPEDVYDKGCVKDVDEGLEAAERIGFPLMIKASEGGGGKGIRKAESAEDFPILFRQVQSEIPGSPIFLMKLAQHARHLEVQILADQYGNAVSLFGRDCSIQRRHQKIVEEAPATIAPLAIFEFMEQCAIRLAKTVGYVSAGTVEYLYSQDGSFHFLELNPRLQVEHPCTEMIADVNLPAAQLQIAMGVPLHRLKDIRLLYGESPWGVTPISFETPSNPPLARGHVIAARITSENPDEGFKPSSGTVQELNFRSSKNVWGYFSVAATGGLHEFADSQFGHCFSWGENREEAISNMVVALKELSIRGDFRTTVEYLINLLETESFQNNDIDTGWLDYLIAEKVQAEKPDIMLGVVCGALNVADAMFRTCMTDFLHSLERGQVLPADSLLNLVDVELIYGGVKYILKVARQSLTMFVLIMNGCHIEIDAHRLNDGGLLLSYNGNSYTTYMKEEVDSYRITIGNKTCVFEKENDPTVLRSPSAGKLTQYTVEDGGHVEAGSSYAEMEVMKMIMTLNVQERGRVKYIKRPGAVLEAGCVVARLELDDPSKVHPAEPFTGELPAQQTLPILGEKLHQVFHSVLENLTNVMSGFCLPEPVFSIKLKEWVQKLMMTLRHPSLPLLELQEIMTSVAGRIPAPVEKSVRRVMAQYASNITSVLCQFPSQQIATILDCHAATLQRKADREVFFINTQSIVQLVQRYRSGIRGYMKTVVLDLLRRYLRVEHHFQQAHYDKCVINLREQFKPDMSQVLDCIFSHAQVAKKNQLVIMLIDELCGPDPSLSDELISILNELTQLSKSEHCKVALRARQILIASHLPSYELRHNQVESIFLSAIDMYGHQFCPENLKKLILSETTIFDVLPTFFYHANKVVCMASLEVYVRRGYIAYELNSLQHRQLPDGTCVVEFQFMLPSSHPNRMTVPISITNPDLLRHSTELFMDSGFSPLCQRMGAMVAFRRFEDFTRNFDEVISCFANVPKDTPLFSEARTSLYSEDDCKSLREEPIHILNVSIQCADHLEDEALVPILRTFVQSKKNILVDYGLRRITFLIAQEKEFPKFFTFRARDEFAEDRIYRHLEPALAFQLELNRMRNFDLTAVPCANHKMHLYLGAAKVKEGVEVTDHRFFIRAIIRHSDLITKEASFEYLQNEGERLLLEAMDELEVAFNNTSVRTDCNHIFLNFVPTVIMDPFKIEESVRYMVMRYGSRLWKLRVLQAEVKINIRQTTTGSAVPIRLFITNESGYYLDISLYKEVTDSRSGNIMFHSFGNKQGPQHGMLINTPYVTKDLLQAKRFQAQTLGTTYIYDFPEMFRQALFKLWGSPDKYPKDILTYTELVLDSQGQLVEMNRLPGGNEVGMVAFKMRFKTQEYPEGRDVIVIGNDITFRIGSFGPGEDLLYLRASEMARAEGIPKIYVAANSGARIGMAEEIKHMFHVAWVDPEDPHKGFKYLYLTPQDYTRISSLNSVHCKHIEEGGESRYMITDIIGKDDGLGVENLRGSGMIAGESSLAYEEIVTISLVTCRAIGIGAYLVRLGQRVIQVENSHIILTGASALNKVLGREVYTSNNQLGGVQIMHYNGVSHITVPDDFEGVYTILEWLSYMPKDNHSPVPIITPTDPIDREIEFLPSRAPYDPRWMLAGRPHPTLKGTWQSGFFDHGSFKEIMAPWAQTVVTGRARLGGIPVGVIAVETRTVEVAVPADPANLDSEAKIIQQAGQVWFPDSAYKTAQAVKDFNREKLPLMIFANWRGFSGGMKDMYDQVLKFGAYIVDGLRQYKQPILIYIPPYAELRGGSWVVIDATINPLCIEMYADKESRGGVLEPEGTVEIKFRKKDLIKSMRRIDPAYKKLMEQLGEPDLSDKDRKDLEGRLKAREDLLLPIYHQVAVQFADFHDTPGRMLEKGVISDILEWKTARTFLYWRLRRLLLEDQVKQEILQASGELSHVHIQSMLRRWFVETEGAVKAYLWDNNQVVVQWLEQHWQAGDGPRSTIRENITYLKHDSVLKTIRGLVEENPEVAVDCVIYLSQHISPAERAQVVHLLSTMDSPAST
row,Compound,pIC50
1,"CC(C)OC(=O)c1ccc(NS(=O)(=O)c2ccc3nc(-c4ccc(F)cc4)[nH]c3c2)cc1 [Example 499, isopropyl 4-(2-(4-fluorophenyl)-1H-benzo[d]imidazole-6-sulfonamido)benzoate]",5.67
2,"COc1cccc(-c2nc3ccc(S(=O)(=O)Nc4ccc(C(=O)OC(C)C)cc4)cc3[nH]2)c1 [Example 500, isopropyl 4-(2-(3-methoxyphenyl)-1H-benzo[d]imidazole-6-sulfonamido)benzoate]",5.83
3,"Cc1cccc(-c2nc3ccc(S(=O)(=O)Nc4ccc(C(=O)OC(C)C)cc4)cc3[nH]2)c1 [Example 501, isopropyl 4-(2-m-tolyl-1H-benzo[d]imidazole-6-sulfonamido)benzoate]",5.78
4,"CC(C)OC(=O)c1ccc(NS(=O)(=O)c2ccc3nc(-c4ccccc4F)[nH]c3c2)cc1 [Example 502, isopropyl 4-(2-(2-fluorophenyl)-1H-benzo[d]imidazole-6-sulfonamido)benzoate]",5.89
5,"CC(C)OC(=O)c1ccc(NS(=O)(=O)c2ccc3nc(-c4ccc(O)cc4)[nH]c3c2)cc1 [Example 503, isopropyl 4-(2-(4-hydroxyphenyl)-1H-benzo[d]imidazole-6-sulfonamido)benzoate]",6.09
6,"Cc1ccc(-c2nc3ccc(S(=O)(=O)Nc4ccc(C(=O)OC(C)C)cc4)cc3[nH]2)cc1 [Example 504, isopropyl 4-(2-p-tolyl-1H-benzo[d]imidazole-6-sulfonamido)benzoate]",5.76
7,"CC(C)OC(=O)c1ccc(NS(=O)(=O)c2ccc3nc(-c4ccc(OC(C)C)cc4)[nH]c3c2)cc1 [Example 505, isopropyl 4-(2-(4-isopropoxyphenyl)-1H-benzo[d]imidazole-6-sulfonamido)benzoate]",5.75
8,"CC(C)OC(=O)c1ccc(NS(=O)(=O)c2ccc3nc(-c4ccc(C(C)C)cc4)[nH]c3c2)cc1 [Example 506, isopropyl 4-(2-(4-isopropylphenyl)-1H-benzo[d]imidazole-6-sulfonamido)benzoate]",5.71
9,"CC(C)OC(=O)c1ccc(NS(=O)(=O)c2ccc3nc(-c4ccc(Oc5ccccc5)cc4)[nH]c3c2)cc1 [Example 507, isopropyl 4-(2-(4-phenoxyphenyl)-1H-benzo[d]imidazole-6-sulfonamido)benzoate]",4.65
10,"CC(C)OC(=O)c1ccc(NS(=O)(=O)c2ccc3nc(-c4ccc(N(C)C)cc4)[nH]c3c2)cc1 [Example 508, isopropyl 4-(2-(4-(dimethylamino)phenyl)-1H-benzo[d]imidazole-6-sulfonamido)benzoate]",5.86
11,"CC(C)OC(=O)c1ccc(NS(=O)(=O)c2ccc3nc(-c4cncs4)[nH]c3c2)cc1 [Example 510, isopropyl 4-(2-(thiazol-5-yl)-1H-benzo[d]imidazole-6-sulfonamido)benzoate]",5.74
12,"CC(C)OC(=O)c1ccc(NS(=O)(=O)c2ccc3nc(-c4cccc(O)c4)[nH]c3c2)cc1 [Example 511, isopropyl 4-(2-(3-hydroxyphenyl)-1H-benzo[d]imidazole-6-sulfonamido)benzoate]",5.98
13,"CC(C)OC(=O)c1ccc(NS(=O)(=O)c2ccc3nc(-c4ccc(C(C)(C)C)cc4)[nH]c3c2)cc1 [Example 512, isopropyl 4-(2-(4-tert-butylphenyl)-1H-benzo[d]imidazole-6-sulfonamido)benzoate]",5.64
14,"CC(C)(C)c1nnc(-c2ccc(NS(=O)(=O)c3ccc4nc(-c5ccccc5)[nH]c4c3)cc2)o1 [Example 513, N-(4-(5-tert-butyl-1,3,4-oxadiazol-2-yl)phenyl)-2-phenyl-1H-benzo[d]imidazole-6-sulfonamide]",5.54
15,"CC(C)OC(=O)c1ccc(NS(=O)(=O)c2ccc3nc(-c4ccc(S(C)(=O)=O)cc4)[nH]c3c2)cc1 [Example 514, isopropyl 4-(2-(4-(methylsulfonyl)phenyl)-1H-benzo[d]imidazole-6-sulfonamido)benzoate]",6.08
16,"CC(C)OC(=O)c1ccc(NS(=O)(=O)c2ccc3nc(-c4ccncc4)[nH]c3c2)cc1 [Example 515, isopropyl 4-(2-(pyridin-4-yl)-1H-benzo[d]imidazole-6-sulfonamido)benzoate]",5.54
17,"COc1ccc(-c2nc3ccc(S(=O)(=O)Nc4ccc(C(=O)OC(C)C)cc4)cc3[nH]2)cc1OC [Example 516, isopropyl 4-(2-(3,4-dimethoxyphenyl)-1H-benzo[d]imidazole-6-sulfonamido)benzoate]",5.92
18,"O=S(=O)(Nc1ccc(-c2nnc(-c3ccccc3)o2)cc1)c1ccc2nc(-c3ccccc3)[nH]c2c1 [Example 518, 2-phenyl-N-(4-(5-phenyl-1,3,4-oxadiazol-2-yl)phenyl)-1H-benzo[d]imidazole-6-sulfonamide]",5.45
19,"O=S(=O)(Nc1ccc(-c2nnc(C3CCCCC3)o2)cc1)c1ccc2nc(-c3ccccc3)[nH]c2c1 [Example 519, N-(4-(5-cyclohexyl-1,3,4-oxadiazol-2-yl)phenyl)-2-phenyl-1H-benzo[d]imidazole-6-sulfonamide]",4.49
20,"COCc1nnc(-c2ccc(NS(=O)(=O)c3ccc4nc(-c5ccccc5)[nH]c4c3)cc2)o1 [Example 520, N-(4-(5-(methoxymethyl)-1,3,4-oxadiazol-2-yl)phenyl)-2-phenyl-1H-benzo[d]imidazole-6-sulfonamide]",5.03

# Now those with a higher pIC50, led by results:
row,pIC50,Compound
1,6.17,"CC(C)OC(=O)c1ccc(NS(=O)(=O)c2ccc3nc(-c4ccc(C(=O)O)cc4)[nH]c3c2)cc1 [Example 509, 4-(6-(N-(4-(isopropoxycarbonyl)phenyl)sulfamoyl)-1H-benzo[d]imidazol-2-yl)benzoic acid]"
2,6.19,"CC(C)OC(=O)c1ccc(NS(=O)(=O)c2ccc3[nH]c(Nc4ccc(Cl)cc4)nc3c2)cc1 [Example 529, isopropyl 4-(2-(4-chlorophenylamino)-1H-benzo[d]imidazole-5-sulfonamido)benzoate]"
3,6.19,"CC(C)OC(=O)c1ccc(NS(=O)(=O)c2ccc3[nH]c(Nc4cccc(F)c4F)nc3c2)cc1 [Example 533, isopropyl 4-(2-(2,3-difluorophenylamino)-1H-benzo[d]imidazole-5-sulfonamido)benzoate]"
4,6.21,"COc1cc(Nc2nc3cc(S(=O)(=O)Nc4ccc(C(=O)OC(C)C)cc4)ccc3[nH]2)cc(OC)c1 [Example 530, isopropyl 4-(2-(3,5-dimethoxyphenylamino)-1H-benzo[d]imidazole-5-sulfonamido)benzoate]"
5,6.31,"CC(=O)Nc1ccc(-c2nc3ccc(S(=O)(=O)Nc4ccc(C(=O)OC(C)C)cc4)cc3[nH]2)cc1 [Example 498, isopropyl 4-(2-(4-acetamidophenyl)-1H-benzo[d]imidazole-6-sulfonamido)benzoate]"
6,6.33,"COc1ccc(Nc2nc3cc(S(=O)(=O)Nc4ccc(C(=O)OC(C)C)cc4)ccc3[nH]2)cc1 [Example 523, isopropyl 4-(2-(4-methoxyphenylamino)-1H-benzo[d]imidazole-5-sulfonamido)benzoate]"
7,6.44,"COc1cccc(Nc2nc3cc(S(=O)(=O)Nc4ccc(C(=O)OC(C)C)cc4)ccc3[nH]2)c1 [Example 524, isopropyl 4-(2-(3-methoxyphenylamino)-1H-benzo[d]imidazole-5-sulfonamido)benzoate]"
8,6.49,"CC(C)OC(=O)c1ccc(NS(=O)(=O)c2ccc3[nH]c(Nc4ccc(F)cc4)nc3c2)cc1 [Example 522, isopropyl 4-(2-(4-fluorophenylamino)-1H-benzo[d]imidazole-5-sulfonamido)benzoate]"
9,6.61,"COc1ccc(Nc2nc3cc(S(=O)(=O)Nc4ccc(C(=O)OC(C)C)cc4)ccc3[nH]2)cc1OC [Example 531, isopropyl 4-(2-(3,4-dimethoxyphenylamino)-1H-benzo[d]imidazole-5-sulfonamido)benzoate]"
10,6.61,"CC(C)OC(=O)c1ccc(NS(=O)(=O)c2ccc3nc(-c4ccc(C(C)O)cc4)[nH]c3c2)cc1 (stereo not drawn) [Example 517, isopropyl 4-(2-(4-(1-hydroxyethyl)phenyl)-1H-benzo[d]imidazole-6-sulfonamido)benzoate]"
11,6.62,"CC(C)OC(=O)c1ccc(NS(=O)(=O)c2ccc3[nH]c(Nc4ccccc4)nc3c2)cc1 [Example 521, isopropyl 4-(2-(phenylamino)-1H-benzo[d]imidazole-5-sulfonamido)benzoate]"
12,6.75,"CC(C)OC(=O)c1ccc(NS(=O)(=O)c2ccc3[nH]c(Nc4ccc5c(c4)OCCO5)nc3c2)cc1 [Example 526, isopropyl 4-(2-(2,3-dihydrobenzo[b][1,4]dioxin-6-ylamino)-1H-benzo[d]imidazole-5-sulfonamido)benzoate]"
13,6.77,"CC(C)OC(=O)c1ccc(NS(=O)(=O)c2ccc3[nH]c(Nc4ccc5nsnc5c4)nc3c2)cc1 [Example 527, isopropyl 4-(2-(benzo[c][1,2,5]thiadiazol-5-ylamino)-1H-benzo[d]imidazole-5-sulfonamido)benzoate]"
14,6.78,"CC(C)OC(=O)c1ccc(NS(=O)(=O)c2ccc3[nH]c(Nc4cccc(C#N)c4)nc3c2)cc1 [Example 525, isopropyl 4-(2-(3-cyanophenylamino)-1H-benzo[d]imidazole-5-sulfonamido)benzoate]"
15,6.96,"CC(C)OC(=O)c1ccc(NS(=O)(=O)c2ccc3[nH]c(Nc4ccc(N5CCOCC5)cc4)nc3c2)cc1 [Example 532, isopropyl 4-(2-(4-morpholinophenylamino)-1H-benzo[d]imidazole-5-sulfonamido)benzoate]"
16,7.39,"CC(C)OC(=O)c1ccc(NS(=O)(=O)c2ccc3[nH]c(Nc4ccc(S(N)(=O)=O)cc4)nc3c2)cc1 [Example 528, isopropyl 4-(2-(4-sulfamoylphenylamino)-1H-benzo[d]imidazole-5-sulfonamido)benzoate]"
